Laboratory results: patent US6696494B2, “α-hydroxyarylbutanamine inhibitors of aspartyl protease” (Enanta Pharmaceuticals, Inc., priority 2001, dated 2004)

Target: HIV-1 protease (Human immunodeficiency virus type 1 group M subtype B, UniProt P04585)
Assay: Inhibition of microbial expressed viral protease (HIV-1 protease), method of Toth and Marshall
Assay type: biochemical
Method: Biological Assay for Inhibition of Microbial Expressed Viral Protease
The inhibition constants against HIV-1 protease were measured using the method described by M. V. Toth and G. R. Marshall, Int. J. Peptide protein Res., 1990, 544. The method described M. W. Pennington et al., Peptides 1990, Gimet, E. and D. Andrew, Eds., Escom; Leiden, Netherlands (1990) may also be used. The potency is measured as IC50in μM. The person of skill would accept these tests as predictive of the compounds' utility in vivo to treat HIV infected patients.

SMILES	IC50 [µM]
CC(C)(C)NC(=O)c1ccccc1CC[C@@H](O)[C@H](Cc1ccccc1)NC(=O)c1cc(=O)c2ccccc2o1 [Example 000974]	> 10
Cc1cccc(C)c1OCC(=O)N[C@@H](Cc1ccccc1)[C@H](O)CCc1ccccc1C(=O)NC(C)(C)C [Example 000987]	< 0.1
CC(C)(C)NC(=O)c1ccccc1CC[C@@H](O)[C@H](Cc1ccccc1)NC(=O)N(c1ccccc1)c1ccccc1 [Example 001006]	0.1 to 10
CC(C)(C)NC(=O)c1ccccc1CC[C@@H](O)[C@H](Cc1ccccc1)NC(=O)N1CCOCC1 [Example 001008]	0.1 to 10
CC(C)(C)NC(=O)c1ccccc1CC[C@@H](O)[C@H](Cc1ccccc1)NS(=O)(=O)c1cccc(Cl)c1Cl [Example 001010]	> 10
CC(C)(C)NC(=O)c1ccccc1CC[C@@H](O)[C@H](Cc1ccccc1)NS(=O)(=O)c1cccc2nonc12 [Example 001012]	0.1 to 10
Cc1ccccc1S(=O)(=O)NC(=O)N[C@@H](Cc1ccccc1)[C@H](O)CCc1ccccc1C(=O)NC(C)(C)C [Example 001014]	0.1 to 10
CC(C)(C)NC(=O)c1ccccc1CC[C@@H](O)[C@H](Cc1ccccc1)NC(=S)Oc1ccc(F)cc1 [Example 001017]	> 10
CC(C)(C)NC(=O)c1ccccc1CC[C@@H](O)[C@H](Cc1ccccc1)NC(=O)c1ccccc1Nc1ccccc1 [Example 001020]	> 10
COc1ccc(C(=O)c2ccccc2C(=O)N[C@@H](Cc2ccccc2)[C@H](O)CCc2ccccc2C(=O)NC(C)(C)C)c(O)c1 [Example 001034]	0.1 to 10
CC(C)(C)NC(=O)c1ccccc1CC[C@@H](O)[C@H](Cc1ccccc1)NC(=O)c1ccc(Br)c(C(=O)O)c1 [Example 001035]	0.1 to 10
CC(C)(C)NC(=O)c1ccccc1CC[C@@H](O)[C@H](Cc1ccccc1)NC(=O)c1cc(C(F)(F)F)ccc1Cl [Example 001036]	> 10
CC(C)(C)NC(=O)c1ccccc1CC[C@@H](O)[C@H](Cc1ccccc1)NC(=O)c1ccccc1C(=O)c1ccccc1N [Example 001040]	0.1 to 10
CC(C)(C)NC(=O)c1ccccc1CC[C@@H](O)[C@H](Cc1ccccc1)NC(=O)c1ccccc1C(F)(F)F [Example 001042]	0.1 to 10
CC(C)(C)NC(=O)c1ccccc1CC[C@@H](O)[C@H](Cc1ccccc1)NC(=O)c1ccc(C(=O)c2ccccc2)cc1 [Example 001047]	0.1 to 10
CC(C)(C)OC(=O)N[C@@H](Cc1ccccc1)[C@H](O)CCc1ccccc1C(=O)N[C@H](CO)c1ccccc1 [Example 001054]	0.1 to 10
Cc1nocc1C(=O)N[C@@H](Cc1ccccc1)[C@H](O)CCc1ccccc1C(=O)NC(C)(C)C [Example 001154]	0.1 to 10
CC(C)(C)NC(=O)c1ccccc1CC[C@@H](O)[C@H](Cc1ccccc1)NC(=O)COc1cc(F)cc(F)c1 [Example 001182]	> 10
Cc1cccc(OCC(=O)N[C@@H](Cc2ccccc2)[C@H](O)CCc2ccccc2C(=O)NC(C)(C)C)c1 [Example 001185]	0.1 to 10
Cc1ccc(OCC(=O)N[C@@H](Cc2ccccc2)[C@H](O)CCc2ccccc2C(=O)NC(C)(C)C)cc1 [Example 001186]	0.1 to 10
CC(C)(C)NC(=O)c1ccccc1CC[C@@H](O)[C@H](Cc1ccccc1)NC(=O)CSc1ccccc1 [Example 001190]	0.1 to 10
CC(C)(C)NC(=O)c1ccccc1CC[C@@H](O)[C@H](Cc1ccccc1)NC(=O)CNc1ccccc1 [Example 001192]	0.1 to 10
Cc1ccc(C)c(OCC(=O)N[C@@H](Cc2ccccc2)[C@H](O)CCc2ccccc2C(=O)NC(C)(C)C)c1C [Example 001201]	< 0.1
CC(C)(C)NC(=O)c1ccccc1CC[C@@H](O)[C@H](Cc1ccccc1)NC(=O)COc1c(Cl)cccc1Cl [Example 001203]	0.1 to 10
CC(C)(C)NC(=O)c1ccccc1CC[C@@H](O)[C@H](Cc1ccccc1)NC(=O)COc1ccccc1C(F)(F)F [Example 001204]	0.1 to 10
C=CCc1cccc(C)c1OCC(=O)N[C@@H](Cc1ccccc1)[C@H](O)CCc1ccccc1C(=O)NC(C)(C)C [Example 001206]	0.1 to 10
